Data from patent US9290421B2, “Hypervalent radioactive astatine or iodine compounds, and preparation methods thereof” (Institut National de la Santé de la Recherche Medicalé, priority 2010, dated 2016).

Work on `Cc1ccc2c(c1)C(C(F)(F)F)(C(F)(F)F)OI2Br` [Compound 5a, 1-Bromo-1,3-dihydro-5-methyl-3,3-bis(trifluoromethyl)-1,2-benziodoxole] yielded a melting point of 189 to 190 °C.
